How the values were obtained:
[1] = tested on: ducksalad; assay: Test B flooded paddy test; type: in vivo, Heteranthera limosa; details: 1000 g ai/ha, visual rating, scale 0 to 100 (0 no effect, 100 complete control), 13 to 15 days
Summary of the method: (§1)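 Greenhouse test; postemergence application to plants at 1–4 leaves (2–18 cm); paddy species at 2 leaves; evaluated visually vs controls at 13–15 days; scale 0–100 (100 = complete control).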

[2] = tested on: wheat; assay: Test B postemergence herbicide test; type: in vivo, Triticum aestivum; set-up: key to Wheat plant response rating: 0 = no effect, 100 = complete control; details: postemergence, visual rating, scale 0 (no effect) to 100 (complete control)
Summary of the method: (§2)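 Each value is a visual 0–100 response rating taken against controls 13 to 15 days after treatment in the greenhouse. Plants received formulated chemical postemergence at the 1- to 4-leaf stage or, in flooded paddy, at the 2-leaf stage.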

[3] = tested on: giant foxtail; assay: Test B pre-/postemergence herbicide test; type: in vivo, Setaria faberi; details: for Foxtail, Giant plant response rating: postemergence, scale 0 (no effect) to 100 (complete control)
Summary of the method: (§3)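 Visual rating, 0 (no effect) to 100 (complete control), versus untreated controls after 13–15 d in greenhouse. Pre- and postemergence applications (postemergence plants 2–18 cm, 1–4 leaves); flooded paddy arm at 2-leaf stage. Compounds in non-phytotoxic solvent plus surfactant.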

[4] = tested on: pigweed; assay: Test B pre-/postemergence herbicide test; type: in vivo, Amaranthus retroflexus; details: for Pigweed plant response rating: postemergence, scale 0 (no effect) to 100 (complete control)
Summary of the method: as §3

[5] = tested on: cocklebur; assay: Test B pre-/postemergence herbicide test; type: in vivo, Xanthium strumarium; details: for Cocklebur plant response rating: postemergence, scale 0 (no effect) to 100 (complete control)
Summary of the method: (§4)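 Greenhouse pot assay with simultaneous preemergence (treated seed) and postemergence (2–18 cm seedlings) applications of surfactant-containing, non-phytotoxic solvent formulations. Response scored visually 13–15 days later on a 0–100 scale, 100 meaning complete control.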

[6] = tested on: corn; assay: Test B pre-/postemergence herbicide test; type: in vivo, Zea mays; details: for Corn plant response rating: postemergence, scale 0 (no effect) to 100 (complete control)
Summary of the method: as §3

[7] = tested on: wild oat; assay: Test B postemergence herbicide test; type: in vivo, Avena fatua; details: postemergence, visual rating, scale 0 (no effect) to 100 (complete control)
Summary of the method: as §2

[8] = tested on: lambsquarters; assay: Test B pre-/postemergence herbicide test; type: in vivo, Chenopodium album; details: for Lambsquarters plant response rating: postemergence, scale 0 (no effect) to 100 (complete control)
Summary of the method: as §3

[9] = tested on: barnyardgrass; assay: Test B flooded paddy test; type: in vivo, Echinochloa crus-galli; details: 1000 g ai/ha, visual rating, scale 0 to 100 (0 no effect, 100 complete control), 13 to 15 days
Summary of the method: as §1

[10] = tested on: barnyardgrass; assay: Test B pre-/postemergence herbicide test; type: in vivo, Echinochloa crus-galli; details: for Barnyardgrass plant response rating: postemergence, scale 0 (no effect) to 100 (complete control)
Summary of the method: as §4

[11] = tested on: rice; assay: Test B pre-/postemergence herbicide test; type: in vivo, Oryza sativa; details: 0 = no effect, 100 = complete control, preemergence
Summary of the method: as §3

[12] = tested on: smallflower umbrella sedge; assay: Test C flooded paddy test; type: in vivo, Cyperus difformis
[13] = tested on: large crabgrass; assay: Test B pre-/postemergence herbicide test; type: in vivo, Digitaria sanguinalis; details: for Crabgrass, Large plant response rating: postemergence, scale 0 (no effect) to 100 (complete control)
Summary of the method: as §3

[14] = tested on: Surinam grass; assay: Test B pre-/postemergence herbicide test; type: in vivo, Urochloa decumbens; details: for Surinam Grass plant response rating: postemergence, scale 0 (no effect) to 100 (complete control)
Summary of the method: as §3

[15] = tested on: blackgrass; assay: Test B postemergence herbicide test; type: in vivo, Alopecurus myosuroides; details: postemergence, visual rating, scale 0 (no effect) to 100 (complete control)
Summary of the method: as §1

[16] = tested on: velvetleaf; assay: Test B pre-/postemergence herbicide test; type: in vivo, Abutilon theophrasti; details: for Velvetleaf plant response rating: postemergence, scale 0 (no effect) to 100 (complete control)
Summary of the method: as §3

[17] = tested on: ducksalad; assay: Test C flooded paddy test; type: in vivo, Heteranthera limosa
[18] = tested on: morningglory; assay: Test B pre-/postemergence herbicide test; type: in vivo, Ipomoea coccinea; details: for Morningglory plant response rating: postemergence, scale 0 (no effect) to 100 (complete control)
Summary of the method: as §4

[19] = tested on: rice; assay: Test B flooded paddy test; type: in vivo, Oryza sativa; details: 1000 g ai/ha, visual rating, scale 0 to 100 (0 no effect, 100 complete control), 13 to 15 days
Summary of the method: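 Read-out: visual comparison with controls, scored 0 to 100, where 100 means complete control and 0 no effect. Formulated chemicals were applied postemergence to plants 2–18 cm tall (1- to 4-leaf), or to flooded-paddy plants at the 2-leaf stage, then held 13 to 15 days under glass.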

[20] = tested on: small flower umbrella sedge; assay: Test B flooded paddy test; type: in vivo, Cyperus difformis; details: 1000 g ai/ha, visual rating, scale 0 to 100 (0 no effect, 100 complete control), 13 to 15 days
Summary of the method: as §1

[21] = tested on: barnyardgrass; assay: Test C flooded paddy test; type: in vivo, Echinochloa crus-galli
Summary of the method: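 Ratings (0 = no effect, 100 = complete control) come from visual comparison with untreated plants after 12 to 14 days in the greenhouse. Treatment was postemergence at the 1- to 4-leaf stage (2–18 cm), or at the 2-leaf stage for the flooded paddy barnyardgrass.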

[22] = tested on: rice; assay: Test C flooded paddy test; type: in vivo, Oryza sativa
Summary of the method: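 Postemergence sprays applied to plants 2 to 18 cm tall (1- to 4-leaf stage); paddy species grown to 2-leaf stage under flooding. After 12 to 14 days in greenhouse, visual rating versus untreated controls on 0–100 scale (0 no effect, 100 complete control).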

[23] = 125 g ai/ha, 0 = no effect, 100 = complete control, preemergence
[24] = 500 g ai/ha, visual rating, 0 = no effect, 100 = complete control, preemergence
[25] = 62 g ai/ha, scale 0 to 100 (0 no effect, 100 complete control)
[26] = 125 g ai/ha, scale 0 to 100 (0 no effect, 100 complete control)
[27] = 250 g ai/ha, scale of 0 to 100, 0 is no effect, 100 is complete control
[28] = 500 g ai/ha, visual rating after 12 to 14 days, scale 0 to 100 (0 no effect, 100 complete control)

CCc1nc(C(C)(C)C)sc1C(=O)Nc1cccc(C(=O)N(C)CC)c1 [Compound 229]
Ducksalad plant response rating [1]: 90 | Wheat plant response rating ([2]; 125 g ai/ha): 30 | Wheat plant response rating ([2]; 500 g ai/ha): 40 | Foxtail, Giant plant response rating (0 to 100 scale) [3, 23]: 50 | Plant response rating, Foxtail, Giant [3, 24]: 80 | Foxtail, Giant plant response rating ([3]; 125 g ai/ha, visual rating): 30 | Foxtail, Giant plant response rating ([3]; 500 g ai/ha, visual rating): 50 | Pigweed plant response rating (0 to 100 scale) [4, 23]: 100 | Plant response rating, Pigweed [4, 24]: 100 | Pigweed plant response rating ([4]; 125 g ai/ha, visual rating): 60 | Pigweed plant response rating ([4]; 500 g ai/ha, visual rating): 80 | Cocklebur plant response rating (0 to 100 scale) [5, 23]: 0 | Plant response rating, Cocklebur [5, 24]: 40 | Cocklebur plant response rating ([5]; 125 g ai/ha, visual rating): 20 | Cocklebur plant response rating ([5]; 500 g ai/ha, visual rating): 70 | Corn plant response rating (0 to 100 scale) [6, 23]: 10 | Plant response rating, Corn [6, 24]: 40 | Corn plant response rating ([6]; 125 g ai/ha, visual rating): 10 | Corn plant response rating ([6]; 500 g ai/ha, visual rating): 20 | Oat, Wild plant response rating ([7]; 125 g ai/ha): 30 | Oat, Wild plant response rating ([7]; 500 g ai/ha): 50 | Lambsquarters plant response rating (0 to 100 scale) [8, 23]: 90 | Plant response rating, Lambsquarters [8, 24]: 100 | Lambsquarters plant response rating ([8]; 125 g ai/ha, visual rating): 70 | Lambsquarters plant response rating ([8]; 500 g ai/ha, visual rating): 80 | Barnyardgrass plant response rating [9]: 90 | Barnyardgrass plant response rating (0 to 100 scale) [10, 23]: 50 | Plant response rating, Barnyardgrass [10, 24]: 90 | Barnyardgrass plant response rating ([10]; 125 g ai/ha, visual rating): 20 | Barnyardgrass plant response rating ([10]; 500 g ai/ha, visual rating): 50 | Rice plant response rating (0 to 100 scale) ([11]; 125 g ai/ha): 30 | Plant response rating, Rice ([11]; 500 g ai/ha, visual rating): 70 | Sedge, Umbrella plant response rating [12, 25]: 30 | Sedge, Umbrella plant response rating [12, 26]: 40 | Sedge, Umbrella plant response rating [12, 27]: 80 | Plant response rating, Sedge, Umbrella [12, 28]: 80 | Crabgrass, Large plant response rating (0 to 100 scale) [13, 23]: 40 | Plant response rating, Crabgrass, Large [13, 24]: 100 | Crabgrass, Large plant response rating ([13]; 125 g ai/ha, visual rating): 10 | Crabgrass, Large plant response rating ([13]; 500 g ai/ha, visual rating): 20 | Surinam Grass plant response rating (0 to 100 scale) [14, 23]: 40 | Plant response rating, Surinam Grass [14, 24]: 80 | Surinam Grass plant response rating ([14]; 125 g ai/ha, visual rating): 10 | Surinam Grass plant response rating ([14]; 500 g ai/ha, visual rating): 20 | Blackgrass plant response rating ([15]; 125 g ai/ha): 30 | Blackgrass plant response rating ([15]; 500 g ai/ha): 30 | Velvetleaf plant response rating (0 to 100 scale) [16, 23]: 40 | Plant response rating, Velvetleaf [16, 24]: 100 | Velvetleaf plant response rating ([16]; 125 g ai/ha, visual rating): 60 | Velvetleaf plant response rating ([16]; 500 g ai/ha, visual rating): 70 | Ducksalad plant response rating [17, 25]: 0 | Ducksalad plant response rating [17, 26]: 0 | Ducksalad plant response rating [17, 27]: 80 | Plant response rating, Ducksalad [17, 28]: 85 | Morningglory plant response rating (0 to 100 scale) [18, 23]: 10 | Plant response rating, Morningglory [18, 24]: 20 | Morningglory plant response rating ([18]; 125 g ai/ha, visual rating): 10 | Morningglory plant response rating ([18]; 500 g ai/ha, visual rating): 70 | Rice plant response rating [19]: 90 | Sedge, Umbrella plant response rating [20]: 80 | Barnyardgrass plant response rating [21, 25]: 40 | Barnyardgrass plant response rating [21, 26]: 45 | Barnyardgrass plant response rating [21, 27]: 75 | Plant response rating, Barnyardgrass [21, 28]: 80 | Rice plant response rating [22, 25]: 35 | Rice plant response rating [22, 26]: 35 | Rice plant response rating [22, 27]: 80 | Plant response rating, Rice [22, 28]: 90

From patent US20060069132A1, “Azolecarboxamide herbicides” (priority 2004, published 2006)
